Source: patent publication US8802384B2, “Method or system using biomarkers for the monitoring of a treatment” (priority 2009, dated 2014)

Experiments:
[1] = system: VEGFR2^+pY^+ cells in murine peripheral blood; assay: murine blood samples in vivo study (HepG2-inoculated mice), flow cytometry; settings: 50 or 100 mg/kg p.o. for 14 days
Protocol: Mice, inoculated HepG2 cells, were randomized for three groups by tumor size and treated with vehicle (control), compound A1 (50 mg/kg, p.o.) or compound A1 (100 mg/kg, p.o.) for 14 days. Mice were sacrificed and whole murine blood samples were collected by aspiration from abdominal aorta or heart. The blood was hemolyzed by an hemolytic agent at room temperature for 10 min. After centrifugation (500 g, 5 min), the cells were washed by 1 mL of staining buffer. The cells were then incubated with 100 μL of staining buffer and 5 μL of VEGFR2-PE antibody for 15 min in the dark. Then, the cells were washed and incubated in 500 μL of Fixation/Permeabilization solution for 20 min and washed by Perm/Wash buffer twice. Then, a mixture of antibodies (PY-100, CD45-PerCP-Cy5.5, 5 μL of each) and phosphatase inhibitor were added and incubated for 30 min in the dark. The cells were washed and analyzed by flow cytometry (FACS Calibur, BD). The data was obtained from Cell Quest software (BD) and analyzed by WinMDI 2.9 (free software).

[2] = system: CD34^+CD45^dim peripheral blood cells; assay: Phase I clinical study: CD133/CD117 subpopulations of CD34^+CD45^dim peripheral blood cells, flow cytometry; assay type: in vivo, human
Protocol: Whole blood was collected on pre-treatment (day 1), and on day 2, day 8 and day 29 after treatment. The subpopulation of CD34^+CD45^dim peripheral blood cells identified from whole blood was further identified by cell surface markers of CD133 and CD117 using flow cytometry. Whole blood (800 μL) was supplemented with 4.5 mL of 0.2% BSA-PBS and centrifuged for 5 min (1500 rpm). After the removal of the supernatant by aspiration, 4.5 mL of 0.2% BSA-PBS was added and centrifuged. The cell pellet was mixed with 50 μL of human gamma-globulin. Antibodies (CD34-FITC, CD117-PE, CD45-PerCP and CD133-APC) were added and kept for 45 min at 4 C. An hemolytic agent (4.5 mL) was added and incubated for 10 min. After centrifugation (1500 rpm, 5 min), the supernatant was washed twice. Then, 0.2% BSA-PBS (4.5 mL) was added, and the supernatant was removed by centrifugation (1500 rpm, 5 min). The cell pellet was filled up to 800 μL with BSA-PBS and analyzed by flow cytometry. The percentage (quadrants) of CD34^+CD45^dimCD133+/−CD117+/− cells were analyzed.

[3] = system: HUVEC cells; assay: HUVEC cells experiment: phospho-tyrosine level after VEGF, flow cytometry; assay type: cell-based, Human; settings: exposure 3 h, 20 ng/ml VEGF 5 min; A1 and AG1478 1 and 5 μM, 5FU 1 and 5 mM; FIG. 1
Protocol: FIG. 1: Effect of different compounds on the phospho-tyrosine level of HUVEC cells treated with VEGF. On the abscissa: 1 is the IgG control, untreated with VEGF and unexposed to an active ingredient; 2 is the control untreated with VEGF and unexposed to an active ingredient; 3 is the control treated with VEGF but unexposed to an active ingredient; 4 is treated with VEGF and exposed to 1 μM of compound A1; 5 is treated with VEGF and exposed to 5 μM of compound A1; 6 is treated with VEGF and exposed to 1 μM of compound AG1478; 7 is treated with VEGF and exposed to 5 μM of compound AG 1478; 8 is treated with VEGF and exposed to 1 mM of compound 5FU; 9 is treated with VEGF and exposed to 5 mM of compound 5FU. HUVEC cells were exposed to compound A1 (1 μM and 5 μM), to the EGFR inhibitor AG1478 (1 μM and 5 μM) and to 5FU (5-fluorouracile, 1 mM and 5 mM) for 3 h and 20 ng/ml of VEGF were added for 5 min before cell collection. Collected cells were washed twice by PBS and centrifugation (300 g, 5 min) in 50 μL of staining buffer. After removal of the supernatant by aspiration, cell pellets were lysed in 250 μL of fixation/permeabilization solution and kept for 20 min on ice. The PY-100 Alexa 488 antibody and phosphatase inhibitor were added. […] The data was obtained from Cell Quest software (BD) and analyzed by WinMDI 2.9 (free software).

[4] = responders, not significant, FIG. 5A

CCS(=O)(=O)O.COC(=O)c1ccc2c(c1)NC(=O)/C2=C(\Nc1ccc(N(C)C(=O)CN2CCN(C)CC2)cc1)c1ccccc1 [compound A1, 3-Z-[1-(4-(N-((4-methyl-piperazin-1-yl)-methylcarbonyl)-N-methyl-amino)-anilino)-1-phenyl-methylene]-6-methoxycarbonyl-2-indolinone-monoethanesulphonate]
number of VEGFR2^+CD45^dimpY^+ cells ([1]; FIG. 2): seems to decrease
VEGFR2^+pY^+ cells in murine peripheral blood ([1]; FIG. 3): suppressed
CD34^+CD45^dimCD133^+CD117^+ cells in responders (stable disease) compared to non-responders ([2]; after treatment, RES n=12, PD n=4, FIG. 5B): tended to decrease
percentage of CD34^+CD45^dimCD133^+CD117^+ cells ([2]; patients with advanced solid tumors, day 29 compared with pre-treatment, p<0.001, FIG. 4A): significantly increased
percentage of CD34^+CD45^dimCD133^−CD117^+ cells ([2]; patients with advanced solid tumors, day 29 compared with pre-treatment, p<0.01, FIG. 4A): decreased
CD34^+CD45^dimCD133^+ cells ([2]; patients, day 29, FIG. 4B): significantly increased
CD34^+CD45^dimCD117^+ cells ([2]; patients, day Band day 29, FIG. 4C): significantly decreased
CD34^+CD45^dimCD117^+ cells in responders (stable disease) [2, 4]: tended to decrease
CD34^+CD45^dimCD133^+ cells in responders (stable disease) [2, 4]: tended to decrease
phospho-tyrosine levels of HUVEC cells [3]: suppressed
